Data reported in patent publication US7816088B2, “Identification, isolation and elimination of cancer stem cells” (The Board of Trustees of the Leland Stanford Junior …, priority 2003, dated 2010).
Entries after “also recorded” stand apart in the source; their conditions may differ. Where a name gives a salt, the structure may show the parent alone.

What was measured:
[1] = system: CD34+Lin− stem and progenitor cells; test: FACS analysis of hematopoietic stem and progenitor profiles of CML patient samples before and after imatinib; type: in vivo, human
Description: Bone Marrow and Peripheral Blood Samples. Fresh human bone marrow was obtained with informed consent from healthy volunteers (AllCells, Berkeley, Calif.) as well as from allogeneic bone marrow donors (Department of Bone Marrow Transplantation, Stanford School of Medicine, Stanford, Calif.). Cytokine (G-CSF) mobilized peripheral blood samples were also obtained following apheresis from allogeneic donors.
Hematopoietic Stem Cell and Myeloid Progenitor Flow Cytometric Analysis and Cell Sorting. Mononuclear fractions were extracted following Ficoll density centrifugation according to standard methods and analyzed fresh or subsequent to rapid thawing of samples previously frozen in 90% FCS and 10% DMSO in liquid nitrogen. Prior to FACS analysis and sorting, hematopoietic stem cells (HSCs) were stained with lineage marker specific phycoerythrin (PE)-Cy5-conjugated antibodies including CD2 RPA-2.10; CD11b, ICRF44; CD20, 2H7; CD56, B159; GPA, GA-R2 (Becton Dickinson-PharMingen, San Diego), CD3, S4.1; CD4, S3.5; CD7, CD7-6B7; CD8, 3B5; CD10, 5-1B4, CD14, TUK4; CD19, SJ25-C1 (Caltag, South San Francisco, Calif.) and APC-conjugated anti-CD34, 84G12 (Becton Dickinson-Pharmingen), biotinylated anti-CD38, HIT2 (Caltag), FITC-conjugated anti-CD90 and PE conjugated anti-Flk2. […]
Myeloid progenitors were stained with the same lineage marker specific PE-Cy5-conjugated antibodies, APC-conjugated anti-CD34, 8G12 (Becton Dickinson-PharMingen) and biotinylated anti-CD38, HIT2 (Caltag) in addition to PE-conjugated anti-IL-3Rα, 9F5 (Becton Dickinson-ParMingen) and FITC-conjugated anti-CD45RA, MEM56 (Caltag) followed by staining with Streptavidin-Texas Red to visualize CD38-BIO stained cells and resuspension in propidium iodide to exclude dead cells. Unstained samples and isotype controls were included to assess background fluorescence. After staining, cells were analyzed and sorted using a modified FACS Vantage (Becton Dickinson Immunocytometry Systems, Mountain View, Calif.) equipped with a 599 nm dye laser and a 488 nm argon laser. […]

[2] = system: β-catenin; test: β-catenin FACS analysis of CML patient progenitors; type: in vivo, human; conditions: CML patients pre versus post-imatinib
Description: β-catenin FACS Analysis. FACS-separated hematopoietic stem cells, common myeloid progenitors, granulocyte/macrophage progenitors, and megakaryocyte/erythroid progenitors were fixed with 0.8% paraformaldehyde and made permeable with 0.3% saponin. Cells were stained overnight with a fluorescein isothiocyanate (FITC)-conjugated antibody to β-catenin (Transduction Laboratories) or IgG1 isotype control-FITC antibody, washed, and analyzed by FACS.

## Cc1ccc(NC(=O)c2ccc(CN3CCN(C)CC3)cc2)cc1Nc1nccc(-c2cccnc2)n1 [imatinib, imatinib mesylate]
[1]; CML patients post-imatinib / responding to imatinib, bone marrow and peripheral blood
  number of CD34+Lin− cells: dramatic decline; also recorded: significant decrease
[1]; imatinib responsive patients
  number of CD34+CD38− and CD34+CD38+ cells: decreased
  proportion of individual myeloid progenitors: reverted to normal
[2]
  β-catenin levels (MFI) in myeloid progenitors: normal
